{"source": "patent US10059715B2", "about": "“Acid addition salt of ibrutinib” (ratiopharm GmbH, priority 2014, dated 2018)", "key": {"physchem": {"experiment": "physchem", "details": "37 °C, thermodynamic from solid"}, "[1]": {"experiment": "Comparison of solubilities at pH values relevant for the gastrointestinal tract"}, "[2]": {"details": "at about pH 8; cited from earlier work"}, "[3]": {"details": "20 mMol NaAc solution, pH 4.5, aqueous buffer"}}, "note": "Counter-ions that a name gives are not always drawn."}
{"smiles": "C=CC(=O)N1CCC[C@@H](n2nc(-c3ccc(Oc4ccccc4)cc3)c3c(N)ncnc32)C1", "note": "[HCl, ibrutinib hydrochloride]", "values": [{"measurement": "solubility at 1 h", "setting": "physchem; [3]", "result": 20, "unit": "µg/mL"}, {"measurement": "solubility", "setting": "[1]; pH 1.2 (0.1M HCl), 15 min, listed as crystalline ibrutinib hydrochloride, hydrochloride", "result": 7370, "unit": "µg/mL"}, {"measurement": "solubility", "setting": "[1]; pH 1.2 (0.1M HCl), 1 h, hydrochloride", "result": 7720, "unit": "µg/mL"}, {"measurement": "solubility", "setting": "[1]; pH 1.2 (0.1M HCl), 24 h, hydrochloride", "result": 7380, "unit": "µg/mL"}, {"measurement": "solubility", "setting": "[1]; pH 4.5 (20 mMol NaAc), 15 min", "result": 10, "unit": "µg/mL"}, {"measurement": "solubility", "setting": "[1]; pH 4.5 (20 mMol NaAc), 24 h, 37° C., hydrochloride", "result": 460, "unit": "µg/mL"}, {"measurement": "solubility", "setting": "[1]; pH 6.8 (50 mMol KH2PO4), 15 min", "result": 10, "unit": "µg/mL"}, {"measurement": "solubility", "setting": "[1]; pH 6.8 (50 mMol KH2PO4), 1 h, 37° C., hydrochloride", "result": 50, "unit": "µg/mL"}, {"measurement": "solubility", "setting": "[1]; pH 6.8 (50 mMol KH2PO4), 24 h, 37° C., hydrochloride", "result": 410, "unit": "µg/mL"}]}
{"smiles": "C=CC(=O)N1CCC[C@@H](n2nc(-c3ccc(Oc4ccccc4)cc3)c3c(N)ncnc32)C1", "note": "[base, 1-[(3R)-3[4-Amino-3-(4-phenoxyphenyl)-1H-pyrazolo[3,4-d]pyrimidin-1-yl]piperidin-1-yl]prop-2-en-1one]", "values": [{"measurement": "solubility at 15 min", "setting": "physchem; [3]", "result": 10, "unit": "µg/mL"}, {"measurement": "solubility at 15 min", "setting": "physchem; 50 mMol KH2PO4 solution, pH 6.8, aqueous buffer", "result": 10, "unit": "µg/mL"}, {"measurement": "observed aqueous solubility", "setting": "[2]", "result": "about 0.013 mg/ml"}, {"measurement": "solubility", "setting": "[1]; pH 1.2 (0.1M HCl), 15 min, listed as ibrutinib base (form A)", "result": 2070, "unit": "µg/mL"}, {"measurement": "solubility", "setting": "[1]; pH 1.2 (0.1M HCl), 1 h", "result": 2640, "unit": "µg/mL"}, {"measurement": "solubility", "setting": "[1]; pH 1.2 (0.1M HCl), 24 h", "result": 2640, "unit": "µg/mL"}, {"measurement": "solubility", "setting": "[1]; pH 4.5 (20 mMol NaAc), 1 h, 37° C.", "result": 10, "unit": "µg/mL"}, {"measurement": "solubility", "setting": "[1]; pH 4.5 (20 mMol NaAc), 24 h, 37° C.", "result": 10, "unit": "µg/mL"}, {"measurement": "solubility (in words)", "setting": "[1]; pH 4.5, time not stated", "result": "substantially insoluble"}, {"measurement": "solubility", "setting": "[1]; pH 6.8 (50 mMol KH2PO4), 1 h, 37° C.", "result": 10, "unit": "µg/mL"}, {"measurement": "solubility", "setting": "[1]; pH 6.8 (50 mMol KH2PO4), 24 h, 37° C.", "result": 10, "unit": "µg/mL"}, {"measurement": "solubility (in words)", "setting": "[1]; pH 6.8, time not stated", "result": "substantially insoluble"}]}
